Measurements published in US12054498B2, “Heteroaromatic macrocyclic ether chemotherapeutic agents” (Nuvalent, Inc., priority 2020, dated 2024).

Experiments:
[1] = molecular target: T1, Ba/F3 cells CD74-ROS1 G2032R (Homo sapiens, UniProt P08922, G2032R); experiment: Ba/F3 cell proliferation assay, CD74-ROS1 G2032R; format: cell-based; conditions: 72 hours, CellTiter-Glo
T1 construct: fusion of the C-terminus of ROS1 with the N-terminus of various partner proteins; host or cells: Ba/F3 (RIKEN), retroviral pMSCV-puro; the other entry of the earlier key: CD74 (P04233, HLA class II histocompatibility antigen gamma chain)
Method in brief: (§1)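 Cells were seeded 1 day, then exposed to a 3-fold compound dilution series for 72 hours. Viability was read by CellTiter-Glo luminescence; IC50 came from four-parameter logistic fitting of percent inhibition.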

ALK-wt = molecular target: T2, ALK-wt (Homo sapiens, UniProt Q9UM73); experiment: Biochemical kinase assay, ALK-wt kinase domain; conditions: apparent inhibitory constant, Morrison equation; ATP 2 mM in substrate solution; read-out: ALK-wt Ki^app
T2 construct: purchased Carna 08-518
Method in brief: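 Apparent Ki values come from fitting initial reaction rates against inhibitor concentration to the Morrison equation. Rates were taken from the linear phase of fluorogenic substrate phosphorylation (AQT0101 for ALK and ROS1, AQT0104 for TRKA; 26 μM in substrate solution with 2 mM ATP), monitored at 485 nm over 120 min at 30° C.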

[2] = molecular target: T3, Ba/F3 cells EML4-ALK wt (variant 1) (Homo sapiens, UniProt Q9UM73); experiment: Ba/F3 cell proliferation assay, EML4-ALK wt (variant 1); format: cell-based; conditions: 72 hours, CellTiter-Glo
T3 construct: echinoderm microtubule-associated protein-like 4 (EML4) gene and the ALK tyrosine kinase domain; host or cells: Ba/F3 (RIKEN), retroviral pMSCV-puro; the other entry of the earlier key: EML4 (Q9HC35, Echinoderm microtubule-associated protein-like 4)
Method in brief: (§2)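 IL-3-independent Ba/F3 lines stably expressing the fusion kinase (retroviral, puromycin-selected), 1,000 cells/well, treated with 3-fold compound dilutions for 72 h. Viability by CellTiter-Glo luminescence; IC50 from four-parameter logistic fit of percent inhibition.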

[3] = molecular target: T4, Ba/F3 cells CD74-ROS1 wild-type (wt) (Homo sapiens, UniProt P08922); experiment: Ba/F3 cell proliferation assay, CD74-ROS1 wild-type; format: cell-based; conditions: 72 hours, CellTiter-Glo
T4 construct: fusion of the C-terminus of ROS1 with the N-terminus of various partner proteins; host or cells: Ba/F3 (RIKEN), retroviral pMSCV-puro; the other entry of the earlier key: CD74 (P04233, HLA class II histocompatibility antigen gamma chain)
Method in brief: as §1

ALK L1196M/G1202R = molecular target: T5, ALK L1196M/G1202R (Homo sapiens, UniProt Q9UM73, G1202R/L1196M); experiment: Biochemical kinase assay, ALK L1196M/G1202R kinase domain; conditions: apparent inhibitory constant, Morrison equation; ATP 2 mM in substrate solution; read-out: ALK-L1196M-G1202R Ki^app
T5 construct: purchased SignalChem A19-12NG
Method in brief: (§3)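 Kinase domains (in kinase solution: ROS1-G2032R 0.5 nM, ROS1-wt 0.6 nM, TRKA 1 nM, ALK L1196M/G1202R 3 nM) were mixed with compound and a substrate solution of 2 mM ATP plus 26 μM fluorogenic AQT0101 (ALK, ROS1) or AQT0104 (TRKA) in HEPES pH 7.5/MgCl2. Fluorescence was followed for 120 min at 30° C; Ki^app was obtained by Morrison fit of initial rates.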

TRKA-wt = molecular target: T6, TRKA-wt (Homo sapiens, UniProt P04629); experiment: Biochemical kinase assay, TRKA-wt kinase domain; conditions: apparent inhibitory constant, Morrison equation; ATP 2 mM in substrate solution; read-out: TRKA-wt Ki^app
T6 construct: or TRKA-wt (1 nM, BPS Bio, 40280) kinase domains in buffer; purchased BPS Bio 40280
Method in brief: as §3

ROS1-G2032R = molecular target: T7, ROS1-G2032R (Homo sapiens, UniProt P08922, G2032R); experiment: Biochemical kinase assay, ROS1-G2032R kinase domain; conditions: apparent inhibitory constant, Morrison equation; ATP 2 mM in substrate solution; read-out: ROS1-G2032R Ki^app
T7 construct: purchased SignalChem R14-12BG
Method in brief: (§4)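 Compounds, as 100-fold DMSO stocks, were dispensed first, then substrate mix was added (ATP 2 mM, AQT0101 26 μM, in 50 mM HEPES pH 7.5/10 mM MgCl2). Reactions ran at 30 °C with fluorescence logged every 2 min over 120 min. Apparent inhibition constants came from fitting rates to Morrison's tight-binding equation.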

[4] = molecular target: T8, Ba/F3 cells EML4-ALK L1196M/G1202R (variant 1) (Homo sapiens, UniProt Q9UM73, G1202R/L1196M); experiment: Ba/F3 cell proliferation assay, EML4-ALK L1196M/G1202R (variant 1); format: cell-based; conditions: 72 hours, CellTiter-Glo
T8 construct: echinoderm microtubule-associated protein-like 4 (EML4) gene and the ALK tyrosine kinase domain; host or cells: Ba/F3 (RIKEN), retroviral pMSCV-puro; the other entry of the earlier key: EML4 (Q9HC35, Echinoderm microtubule-associated protein-like 4)
Method in brief: as §2

Ba/F3 cells TPM3-TRKA = molecular target: T9, Ba/F3 cells TPM3-TRKA (Homo sapiens, UniProt P04629); experiment: Ba/F3 cell proliferation assay, TPM3-TRKA; format: cell-based; conditions: 72 hours, CellTiter-Glo, read-out: TPM3-NTRK1-wt IC50
T9 construct: host or cells: Ba/F3 (RIKEN), retroviral pMSCV-puro; the other entry of the earlier key: TPM3 (P06753, Tropomyosin alpha-3 chain)
Method in brief: as §2

[5] = system: TPM3-NTRK1-wt IC50 / primary target IC50 (e.g. CD74-ROS1-wt); experiment: TRKA selectivity in Ba/F3 cells (TRKA potency divided by primary target potency); format: cell-based; conditions: for TPM3-NTRK1-wt/CD74-ROS1-G2032R selectivity ratio: TRKA potency / CD74-ROS1-G2032R potency; for TPM3-NTRK1-wt/CD74-ROS1-wt selectivity ratio: TRKA potency / CD74-ROS1-wt potency; for TPM3-NTRK1-wt/EML4-ALK-L1196M-G1202R selectivity ratio: TRKA potency / EML4-ALK-L1196M-G1202R potency; for TPM3-NTRK1-wt/EML4-ALK-wt selectivity ratio: TRKA potency / EML4-ALK-wt potency
Procedure: TRKA selectivity was calculated by dividing a compound's TRKA potency by its primary target potency (e.g. TPM3-NTRK1-wt IC50/CD74-ROS1-wt IC50). Compound selectivity can be interpreted by binning ratio values: bin A for very high selectivity, ratio >30-fold; bin B for high selectivity, ratio >10-fold; bin C for moderate selectivity, ratio ≥1; and bin D for low selectivity, ratio <1. […] (nd=not determined).

ROS1-wt = molecular target: T10, ROS1-wt (Homo sapiens, UniProt P08922); experiment: Biochemical kinase assay, ROS1-wt kinase domain; conditions: apparent inhibitory constant, Morrison equation; ATP 2 mM in substrate solution; read-out: ROS1-wt Ki^app
T10 construct: purchased Carna 08-163
Method in brief: as §4

T9 sequence (P04629 510-796 limits assumed): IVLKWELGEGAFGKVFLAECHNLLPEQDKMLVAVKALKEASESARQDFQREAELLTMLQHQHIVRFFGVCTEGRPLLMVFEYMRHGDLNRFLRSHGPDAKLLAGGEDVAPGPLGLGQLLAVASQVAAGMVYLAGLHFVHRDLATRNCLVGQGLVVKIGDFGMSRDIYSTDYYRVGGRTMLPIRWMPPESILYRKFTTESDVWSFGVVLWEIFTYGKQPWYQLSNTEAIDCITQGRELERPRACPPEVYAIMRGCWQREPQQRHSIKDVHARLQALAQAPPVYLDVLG
T6 sequence (P04629 510-781 limits assumed): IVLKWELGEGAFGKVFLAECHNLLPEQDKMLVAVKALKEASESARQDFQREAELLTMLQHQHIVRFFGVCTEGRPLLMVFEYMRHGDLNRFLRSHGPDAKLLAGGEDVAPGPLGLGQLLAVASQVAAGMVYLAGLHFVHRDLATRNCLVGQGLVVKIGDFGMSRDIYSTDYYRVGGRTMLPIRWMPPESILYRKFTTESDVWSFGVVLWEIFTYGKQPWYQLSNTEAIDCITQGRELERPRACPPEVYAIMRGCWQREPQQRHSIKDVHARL
T1 sequence (P08922 1883-2347 G2032R limits assumed): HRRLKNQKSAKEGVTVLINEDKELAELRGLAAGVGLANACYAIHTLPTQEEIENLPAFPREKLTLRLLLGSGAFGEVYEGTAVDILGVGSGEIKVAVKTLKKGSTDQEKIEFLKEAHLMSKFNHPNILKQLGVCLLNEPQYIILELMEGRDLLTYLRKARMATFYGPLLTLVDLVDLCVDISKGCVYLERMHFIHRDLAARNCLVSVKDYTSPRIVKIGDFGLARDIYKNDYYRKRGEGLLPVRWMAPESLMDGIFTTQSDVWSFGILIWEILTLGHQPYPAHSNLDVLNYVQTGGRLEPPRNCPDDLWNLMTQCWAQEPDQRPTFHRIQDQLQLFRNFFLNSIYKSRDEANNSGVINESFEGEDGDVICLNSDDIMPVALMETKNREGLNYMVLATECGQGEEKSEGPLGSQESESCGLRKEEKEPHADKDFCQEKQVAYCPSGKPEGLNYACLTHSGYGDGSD
T2 sequence (Q9UM73 1116-1392 limits assumed): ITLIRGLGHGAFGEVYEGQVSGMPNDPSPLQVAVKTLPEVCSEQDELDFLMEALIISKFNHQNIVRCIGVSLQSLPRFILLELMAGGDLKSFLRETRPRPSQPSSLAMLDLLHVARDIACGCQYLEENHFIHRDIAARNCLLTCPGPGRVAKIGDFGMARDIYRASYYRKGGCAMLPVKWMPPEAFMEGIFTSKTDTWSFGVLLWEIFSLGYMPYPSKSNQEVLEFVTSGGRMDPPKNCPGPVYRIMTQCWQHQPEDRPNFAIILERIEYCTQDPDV
T10 sequence (P08922 1945-2222 limits assumed): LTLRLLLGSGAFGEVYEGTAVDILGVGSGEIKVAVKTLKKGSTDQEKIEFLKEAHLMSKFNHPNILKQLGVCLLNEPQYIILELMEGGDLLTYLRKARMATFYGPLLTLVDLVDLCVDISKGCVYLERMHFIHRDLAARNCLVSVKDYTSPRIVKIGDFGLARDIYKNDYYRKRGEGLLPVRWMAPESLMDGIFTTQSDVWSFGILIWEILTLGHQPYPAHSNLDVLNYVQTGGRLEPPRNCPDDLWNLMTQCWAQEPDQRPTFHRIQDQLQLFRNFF
T4 sequence (P08922 1883-2347 limits assumed): as the sequence (P08922 1883-2347 G2032R limits assumed) above, with R150G counted along it
T8 sequence (Q9UM73 with tags, fused parts or gaps L1196M/G1202R): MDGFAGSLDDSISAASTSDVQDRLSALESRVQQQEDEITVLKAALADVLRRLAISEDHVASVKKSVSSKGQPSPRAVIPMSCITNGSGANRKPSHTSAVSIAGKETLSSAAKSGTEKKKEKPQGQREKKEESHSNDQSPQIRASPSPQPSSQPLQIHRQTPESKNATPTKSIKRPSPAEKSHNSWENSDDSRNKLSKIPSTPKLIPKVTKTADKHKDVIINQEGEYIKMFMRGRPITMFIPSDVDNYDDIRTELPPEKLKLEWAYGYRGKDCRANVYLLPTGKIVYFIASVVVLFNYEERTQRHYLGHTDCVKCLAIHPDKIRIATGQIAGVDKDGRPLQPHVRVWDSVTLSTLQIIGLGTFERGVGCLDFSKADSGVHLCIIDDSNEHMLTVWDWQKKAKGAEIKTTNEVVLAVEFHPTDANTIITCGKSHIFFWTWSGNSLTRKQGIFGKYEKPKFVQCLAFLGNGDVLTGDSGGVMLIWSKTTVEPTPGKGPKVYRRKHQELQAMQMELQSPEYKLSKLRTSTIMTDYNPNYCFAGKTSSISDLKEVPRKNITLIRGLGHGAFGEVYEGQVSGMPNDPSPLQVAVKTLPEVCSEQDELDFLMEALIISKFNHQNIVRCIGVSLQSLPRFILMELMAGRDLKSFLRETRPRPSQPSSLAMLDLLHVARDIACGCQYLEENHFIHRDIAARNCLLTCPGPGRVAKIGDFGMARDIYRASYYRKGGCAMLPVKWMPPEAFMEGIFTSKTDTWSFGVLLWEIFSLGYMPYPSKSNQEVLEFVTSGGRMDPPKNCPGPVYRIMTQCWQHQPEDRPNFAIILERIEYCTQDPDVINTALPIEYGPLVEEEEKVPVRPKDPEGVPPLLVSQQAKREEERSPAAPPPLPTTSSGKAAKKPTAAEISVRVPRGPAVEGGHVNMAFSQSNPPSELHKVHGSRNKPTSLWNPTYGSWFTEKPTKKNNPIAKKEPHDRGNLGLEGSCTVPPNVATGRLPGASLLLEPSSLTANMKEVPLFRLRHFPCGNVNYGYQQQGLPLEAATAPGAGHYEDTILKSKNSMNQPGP
T3 sequence (Q9UM73 with tags, fused parts or gaps): as the sequence (Q9UM73 with tags, fused parts or gaps L1196M/G1202R) above, with M635L, R641G counted along it
T7 sequence (P08922 1945-2222 G2032R limits assumed): as the sequence (P08922 1945-2222 limits assumed) above, with G88R counted along it
T5 sequence (Q9UM73 1116-1392 L1196M/G1202R limits assumed): as the sequence (Q9UM73 1116-1392 limits assumed) above, with L81M, G87R counted along it

Compound	IC50 [1] [nM]	Ki (ALK-wt) [nM]	IC50 [2] [nM]	IC50 [3] [nM]	Ki (ALK L1196M/G1202R) [nM]	Ki (TRKA-wt) [nM]	Ki (ROS1-G2032R) [nM]	IC50 [4] [nM]	IC50 (Ba/F3 cells TPM3-TRKA) [nM]	TPM3-NTRK1-wt/CD74-ROS1-G2032R selectivity ratio [5]	TPM3-NTRK1-wt/CD74-ROS1-wt selectivity ratio [5]	TPM3-NTRK1-wt/EML4-ALK-L1196M-G1202R selectivity ratio [5]	TPM3-NTRK1-wt/EML4-ALK-wt selectivity ratio [5]	Ki (ROS1-wt) [nM]
Cc1nc2n(n1)Cc1cnn(CC3CC3)c1-c1cnc(N)c(c1)O[C@H](C)c1cc(F)ccc1-2 [Example 75, (19R)-3-(cyclopropylmethyl)-16-fluoro-10,19-dimethyl-20-oxa-3,4,8,9,11,23-hexaazapentacyclo[19.3.10^2,^6.0^8,^12.0^13,^18]pentacosa-1(24),2(6),4,9,11,13,15,17,21(25),22-decaen-22-amine]	0.1 to 50	< 50	0.1 to 50	0.1 to 50	< 50	50 to 500	< 50	0.1 to 50	50 to 500	A (bin A for very high selectivity, ratio >30-fold)	A (bin A for very high selectivity, ratio >30-fold)	B (bin B for high selectivity, ratio >10-fold)	A (bin A for very high selectivity, ratio >30-fold)	< 50
C[C@H]1Oc2cc(cnc2N)-c2c(C#N)ncn2Cc2ncncc2-c2ccc(F)cc21 [Example 18, (20R)-23-amino-17-fluoro-20-methyl-21-oxa-4,6,9,11,24-pentaazapentacyclo[20.3.1.0^2,^6.0^8,^13.0^14,^19]hexacosa-1(25),2,4,8(13),9,11,14,16,18,22(26),23-undecaene-3-carbonitrile]	50 to 500	< 50	50 to 500	0.1 to 50	50 to 500	> 500	50 to 500	> 500	> 500	A (bin A for very high selectivity, ratio >30-fold)	A (bin A for very high selectivity, ratio >30-fold)	C (bin C for moderate selectivity, ratio ≥1)	A (bin A for very high selectivity, ratio >30-fold)	< 50
CCn1ncc2c1-c1cnc(N)c(c1)O[C@H](C)c1cc(F)ccc1-c1oc(C)nc1C2 [Example 66, (19R)-3-ethyl-16-fluoro-10,19-dimethyl-11,20-dioxa-3,4,9,23-tetraazapentacyclo[19.3.1,0^2,^6.0^8,^12.0^13,^18]pentacosa-1(24),2(6),4,8(12),9,13,15,17,21(25),22-decaen-22-amine]	0.1 to 50	< 50	0.1 to 50	0.1 to 50	< 50	50 to 500	< 50	0.1 to 50	50 to 500	A (bin A for very high selectivity, ratio >30-fold)	A (bin A for very high selectivity, ratio >30-fold)	C (bin C for moderate selectivity, ratio ≥1)	B (bin B for high selectivity, ratio >10-fold)	< 50
C[C@H]1Oc2cc(cnc2N)-c2c(cnn2CC(F)F)Cc2nn(C)nc2-c2ccc(F)cc21 [Example 24, (19R)-3-(2,2-difluoroethyl)-16-fluoro-10,19-dimethyl-20oxa3,4,9,10,11,23-hexaazapentacyclo[19.3.1.0^2,^6.0^8,^12.0^13,^18]pentacosa-1(24),2(6),4,8,11,13,15,17,21 (25),22-decaen-22-amine]	0.1 to 50	< 50	0.1 to 50	0.1 to 50	< 50	> 500	< 50	50 to 500	> 500	A (bin A for very high selectivity, ratio >30-fold)	A (bin A for very high selectivity, ratio >30-fold)	B (bin B for high selectivity, ratio >10-fold)	A (bin A for very high selectivity, ratio >30-fold)	< 50
